Where two headings read alike, the source gives them in different places.
Assays:
Drosophila OR85b = molecular target: T1, Drosophila OR85b (Drosophila melanogaster, UniProt Q9VHQ7); test: Calcium ion fluorescence (GCaMP6) assay, OR85b stable HEK293 cell line; format: cell-based; conditions: for Average response / OR85b response (VUAA1-normalized) at 1 μM / OR85b response (VUAA1-normalized) at 10 μM / OR85b response (VUAA1-normalized) at 100 μM: OR85b cell line; for Average response: VUAA1-normalized response, mean of biological replicates
T1 construct: expressed in transfected cells
T1 sequence (Q9VHQ7 1-390): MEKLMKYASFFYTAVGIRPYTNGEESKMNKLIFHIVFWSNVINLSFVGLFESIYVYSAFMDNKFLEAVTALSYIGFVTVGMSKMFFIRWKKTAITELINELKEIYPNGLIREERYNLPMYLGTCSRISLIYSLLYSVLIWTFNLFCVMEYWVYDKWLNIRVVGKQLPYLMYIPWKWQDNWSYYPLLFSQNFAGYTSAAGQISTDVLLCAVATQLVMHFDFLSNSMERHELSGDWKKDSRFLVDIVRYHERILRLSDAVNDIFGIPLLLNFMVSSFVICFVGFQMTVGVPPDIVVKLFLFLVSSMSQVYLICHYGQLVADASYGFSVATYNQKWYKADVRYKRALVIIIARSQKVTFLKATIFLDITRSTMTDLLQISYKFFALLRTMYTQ
T1 sequence (Q9VNB5 1-486 partner): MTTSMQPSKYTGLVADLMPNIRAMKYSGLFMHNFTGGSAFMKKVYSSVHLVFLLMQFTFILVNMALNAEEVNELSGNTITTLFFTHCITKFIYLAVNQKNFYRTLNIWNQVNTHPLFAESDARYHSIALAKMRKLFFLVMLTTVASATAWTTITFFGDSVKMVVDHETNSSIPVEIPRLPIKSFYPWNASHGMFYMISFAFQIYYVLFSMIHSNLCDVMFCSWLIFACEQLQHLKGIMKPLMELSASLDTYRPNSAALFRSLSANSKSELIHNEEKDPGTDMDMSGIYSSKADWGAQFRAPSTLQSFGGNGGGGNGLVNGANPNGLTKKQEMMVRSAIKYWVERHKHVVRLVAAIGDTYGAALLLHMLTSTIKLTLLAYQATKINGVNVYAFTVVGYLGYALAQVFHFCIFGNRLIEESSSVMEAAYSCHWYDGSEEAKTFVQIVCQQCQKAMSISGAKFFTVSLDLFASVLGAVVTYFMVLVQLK
Summary of the method: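 Responses are VUAA1-normalized ΔF: each VOC-evoked calcium signal, (FMAX−F0)/F0 over 30 s after injection, divided by the same line's mean 50 µM VUAA1 response. Cells were doxycycline-induced HEK293 with GCaMP6 and the cognate Drosophila OR, in HEPES buffer pH 7.3; ligands tested 0.01–100 μM.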

OR10a = test system: OR10a; design: method as in earlier work; conditions: DoOR database value, ref DoOR, cited from earlier work
OR13a = test system: OR13a; design: method as in earlier work; conditions: DoOR database value, ref DoOR, cited from earlier work
OR47a = test system: OR47a; design: method as in earlier work; conditions: DoOR database value, ref DoOR, cited from earlier work
OR49b = test system: OR49b; design: method as in earlier work; conditions: DoOR database value, ref DoOR, cited from earlier work
OR85b = test system: OR85b; design: method as in earlier work; conditions: DoOR database value, ref DoOR, cited from earlier work
OR98a = test system: OR98a; design: method as in earlier work; conditions: DoOR database value, ref DoOR, cited from earlier work
[1] = HEK293, read-out: OR85b response (VUAA1-normalized response)
[2] = ligand concentration 1 (unit not given), threshold 0.05, below shown as 0
[3] = ligand concentration 10 (unit not given), threshold 0.05, below shown as 0
[4] = ligand concentration 100 (unit not given), threshold 0.05, below shown as 0
[5] = concentration 1, normalized fluorescence change, values below 0.05 threshold given as 0
[6] = concentration 10, normalized fluorescence change, values below 0.05 threshold given as 0
[7] = concentration 100, normalized fluorescence change, values below 0.05 threshold given as 0
[8] = HEK293, read-out: OR85b Average response (VUAA1-normalized)

Row | Compound | activation at 1 µM (Drosophila OR85b; [1]) | activation at 10 µM (Drosophila OR85b; [1]) | activation at 100 µM (Drosophila OR85b; [1]) | Average response (Drosophila OR85b; cc. 1 µM) | Average response (Drosophila OR85b; cc. 10 µM) | Average response (Drosophila OR85b; cc. 100 µM) | DF norm AVERAGE OR85b (Drosophila OR85b; [2]) | DF norm AVERAGE OR85b (Drosophila OR85b; [3]) | DF norm AVERAGE OR85b (Drosophila OR85b; [4]) | OR10a DoOR response (OR10a) | OR13a DoOR response (OR13a) | OR47a DoOR response (OR47a) | OR49b DoOR response (OR49b) | OR85b DoOR response (OR85b) | OR98a DoOR response (OR98a) | DF norm AVERAGE OR85b (Drosophila OR85b; [5]) | DF norm AVERAGE OR85b (Drosophila OR85b; [6]) | DF norm AVERAGE OR85b (Drosophila OR85b; [7]) | also measured
1 | CCCC(=O)OCC [ethyl butyrate] | 0% | 0% | 0% | 0.00 | 0.0253 | 0.0224 | 0 | 0 | 0 | 0.025 | 0.11 | 0.26 | -0.002 | 0.21 | 0.25 | – | – | – | –
2 | C=CC(C)(O)CCC=C(C)C (stereo not drawn) [linalool] | – | – | – | 0.045 | 0.00 | 0.06 | 0 | 0 | 0.06299 | – | – | – | – | – | – | – | – | – | OR85b response (VUAA1-normalized) at 1 μM (Drosophila OR85b; VOC concentration 1 μM): 0.00; OR85b response (VUAA1-normalized) at 10 μM (Drosophila OR85b; VOC concentration 10 μM): 0.00; OR85b response (VUAA1-normalized) at 100 μM (Drosophila OR85b; VOC concentration 100 μM): 0.06; OR10a DoOR response (OR10a; OR10a): 0.001; OR13a DoOR response (OR13a; OR13a): 0.16; OR47a DoOR response (OR47a; OR47a): 0.04; OR49b DoOR response (OR49b; OR49b): 0.016; OR85b DoOR response (OR85b; OR85b): 0.16; OR98a DoOR response (OR98a; OR98a): 0.47
3 | O=Cc1ccccc1 [benzaldehyde] | 6% | 0% | 0% | 0.06 | 0.00 | 0.00 | 0.06124 | 0 | 0 | 0.22 | 0.025 | 0.06 | 0.09 | 0.07 | 0.13 | – | – | – | –
4 | Cc1ccc(O)cc1 [4-methylphenol] | 0% | 0% | 0% | 0.00 | 0.04 | 0.00 | – | – | – | 0.24 | 0.019 | -0.037 | 0.43 | 0.37 | 0.085 | 0 | 0 | 0 | –
5 | COC(=O)c1ccccc1O [methyl salicylate] | – | – | – | 0.00 | 0.0263 | 0.13 | 0 | 0 | 0.1286 | – | – | – | – | – | – | – | – | – | activation at 1 µM (Drosophila OR85b; [8]): 0%; activation at 10 µM (Drosophila OR85b; [8]): 3%; activation at 100 µM (Drosophila OR85b; [8]): 13%; OR85b response (VUAA1-normalized) at 1 μM (Drosophila OR85b; VOC concentration 1 μM): 0.00; OR85b response (VUAA1-normalized) at 10 μM (Drosophila OR85b; VOC concentration 10 μM): 0.00; OR85b response (VUAA1-normalized) at 100 μM (Drosophila OR85b; VOC concentration 100 μM): 0.13; OR10a DoOR response (OR10a; OR10a): 0.75; OR13a DoOR response (OR13a; OR13a): 0.07; OR47a DoOR response (OR47a; OR47a): -0.032; OR49b DoOR response (OR49b; OR49b): 0.05; OR85b DoOR response (OR85b; OR85b): 0.009; OR98a DoOR response (OR98a; OR98a): 0.034
6 | C=C(C)[C@H]1CC=C(C)CC1 [(R)-(+)-limonene] | – | – | – | 0.0426 | 0.03 | 0.00 | – | – | – | 0.07 | 0.057 | – | 0.03 | 0.034 | 0.085 | 0 | 0 | 0 | OR85b response (VUAA1-normalized response) (Drosophila OR85b; VOC concentration 1 μM): 0.00; OR85b response (VUAA1-normalized response) (Drosophila OR85b; VOC concentration 10 μM): 0.00; OR85b response (VUAA1-normalized response) (Drosophila OR85b; VOC concentration 100 μM): 0.00
7 | CCCCCC(C)O (stereo not drawn) [2-heptanol] | 0% | 0% | 32% | 0.0455 | 0.05 | 0.32 | – | – | – | 0.009 | 0.67 | – | – | – | – | 0 | 0 | 0.3169 | activation at 1 µM (Drosophila OR85b; [8]): 5%; activation at 10 µM (Drosophila OR85b; [8]): 5%; activation at 100 µM (Drosophila OR85b; [8]): 32%
8 | CCCCCCCO [1-heptanol] | 0% | 0% | 0% | 0.00 | 0.00 | 0.00 | – | – | – | – | 0.28 | 0.095 | – | – | – | 0 | 0 | 0 | –

Source: article PMC10709440, “High-throughput ligand profile characterization in novel cell lines expressing seven heterologous insect olfactory receptors for the detection of volatile plant biomarkers” (Scientific Reports, 2023)
